Source: patent publication US20230348444A1, “NOVEL COMPOUNDS FOR USE IN THE TREATMENT OF DISEASES ASSOCIATED WITH ANGIOTENSIN II” (Vicore Pharma AB, priority 2020, published 2023)

Key:
[1] = system: CYP3A4&5; experiment: CYP inhibition in human liver microsomes (Eurofins protocol ITEMG232), testosterone substrate; type: in vitro ADME; conditions: for inhibition at 10 µM: probe testosterone, read-out: CYP3A4&5 testosterone Inh %; for CYP3A4&5 testosterone Inh %: 10 μM
Method: (§1) The following substrates were used; CYP1A phenacetin, CYP2B6 bupropion, CYP2C8 paclitaxel and amodiaquine, CYP2C9 diclofenac, CYP2C19 omeprazole, CYP2D6 dextromethorphan, CYP3A midazolam and testosterone.
(§2) At the end of the incubation, the formation of metabolite was monitored by HPLC-MS/MS as the peak area response.

[2] = molecular target: T1, CYP1A (Homo sapiens, UniProt P05177); experiment: CYP inhibition in human liver microsomes (Eurofins protocol ITEMG232); type: in vitro ADME; conditions: substrate phenacetin; for inhibition at 10 µM: probe phenacetin, read-out: CYP1A Inh %; for CYP1A Inh %: 10 μM
T1 construct: using isoform-specific substrates incubated with human liver microsomes; tissue Eurofins ITEMG232; host or cells: human liver microsomes
T1 sequence (P05177 2-516 limits assumed): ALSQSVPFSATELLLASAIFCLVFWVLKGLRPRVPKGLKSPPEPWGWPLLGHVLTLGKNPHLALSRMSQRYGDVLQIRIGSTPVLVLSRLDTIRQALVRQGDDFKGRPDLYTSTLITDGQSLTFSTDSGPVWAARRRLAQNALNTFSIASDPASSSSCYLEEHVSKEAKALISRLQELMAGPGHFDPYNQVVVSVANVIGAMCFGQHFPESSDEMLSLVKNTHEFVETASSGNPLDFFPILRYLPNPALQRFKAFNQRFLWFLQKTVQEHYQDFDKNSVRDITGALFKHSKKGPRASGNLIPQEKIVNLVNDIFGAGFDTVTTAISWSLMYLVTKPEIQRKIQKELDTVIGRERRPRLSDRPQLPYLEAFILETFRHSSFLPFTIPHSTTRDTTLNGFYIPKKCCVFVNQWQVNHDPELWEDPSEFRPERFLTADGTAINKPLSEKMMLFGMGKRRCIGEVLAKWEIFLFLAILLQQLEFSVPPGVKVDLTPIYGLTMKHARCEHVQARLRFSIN
Method: as §1, §2

[3] = molecular target: T2, CYP2C8 (Homo sapiens, UniProt P10632); experiment: as above; type: in vitro ADME; conditions: substrates paclitaxel and amodiaquine; for inhibition at 10 µM: probe paclitaxel and amodiaquine, read-out: CYP2C8 Inh %; for CYP2C8 Inh %: 10 μM
T2 construct: using isoform-specific substrates incubated with human liver microsomes; tissue Eurofins ITEMG232; host or cells: human liver microsomes
T2 sequence (P10632 1-490): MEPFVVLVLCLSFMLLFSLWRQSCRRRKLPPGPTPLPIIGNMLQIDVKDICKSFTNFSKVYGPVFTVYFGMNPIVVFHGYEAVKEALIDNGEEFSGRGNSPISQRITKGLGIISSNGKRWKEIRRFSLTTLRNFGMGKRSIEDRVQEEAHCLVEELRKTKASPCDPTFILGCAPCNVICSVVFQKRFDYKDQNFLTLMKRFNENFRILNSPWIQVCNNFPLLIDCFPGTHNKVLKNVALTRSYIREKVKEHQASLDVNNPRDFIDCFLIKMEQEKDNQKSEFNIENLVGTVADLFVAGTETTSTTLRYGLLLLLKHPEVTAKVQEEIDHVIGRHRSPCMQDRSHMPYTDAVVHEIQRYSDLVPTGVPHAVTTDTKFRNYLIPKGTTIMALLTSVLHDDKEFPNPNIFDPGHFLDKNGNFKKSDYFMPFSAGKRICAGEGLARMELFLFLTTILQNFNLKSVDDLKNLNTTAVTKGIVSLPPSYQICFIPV
Method: as §1, §2

[4] = molecular target: T3, CYP2B6 (Homo sapiens, UniProt P20813); experiment: as above; type: in vitro ADME; conditions: substrate bupropion; for inhibition at 10 µM: probe bupropion, read-out: CYP2B6 Inh %; for CYP2B6 Inh %: 10 μM
T3 construct: using isoform-specific substrates incubated with human liver microsomes; tissue Eurofins ITEMG232; host or cells: human liver microsomes
T3 sequence (P20813 1-491): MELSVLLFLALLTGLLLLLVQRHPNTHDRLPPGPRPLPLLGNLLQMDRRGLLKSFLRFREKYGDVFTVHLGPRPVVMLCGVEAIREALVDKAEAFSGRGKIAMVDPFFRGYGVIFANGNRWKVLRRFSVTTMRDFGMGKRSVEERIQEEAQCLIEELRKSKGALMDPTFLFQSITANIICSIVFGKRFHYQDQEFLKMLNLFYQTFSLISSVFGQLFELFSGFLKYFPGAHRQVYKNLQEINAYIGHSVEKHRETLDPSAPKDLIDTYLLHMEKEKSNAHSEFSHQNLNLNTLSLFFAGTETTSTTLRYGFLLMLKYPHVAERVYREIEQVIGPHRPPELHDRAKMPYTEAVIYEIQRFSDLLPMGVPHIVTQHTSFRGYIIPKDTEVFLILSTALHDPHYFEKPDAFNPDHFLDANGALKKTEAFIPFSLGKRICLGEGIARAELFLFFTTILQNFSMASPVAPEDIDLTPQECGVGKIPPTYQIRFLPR
Method: as §1, §2

[5] = molecular target: T4, CYP2C19 (Homo sapiens, UniProt P33261); experiment: as above; type: in vitro ADME; conditions: substrate omeprazole; for inhibition at 10 µM: probe omeprazole, read-out: CYP2C19 Inh %; for CYP2C19 Inh %: 10 μM
T4 construct: using isoform-specific substrates incubated with human liver microsomes; tissue Eurofins ITEMG232; host or cells: human liver microsomes
Method: as §1, §2

[6] = molecular target: T5, CYP2D6 (Homo sapiens, UniProt P10635); experiment: as above; type: in vitro ADME; conditions: substrate dextromethorphan; for inhibition at 10 µM: probe dextromethorphan, read-out: CYP2D6 Inh %; for CYP2D6 Inh %: 10 μM
T5 construct: tissue Eurofins ITEMG232; host or cells: human liver microsomes
Method: as §1, §2

[7] = molecular target: CYP3A4 (Homo sapiens, UniProt P08684); experiment: CYP inhibition in human liver microsomes (Eurofins protocol ITEMG232), midazolam substrate; type: in vitro ADME; set-up: using isoform-specific substrates incubated with human liver microsomes; tissue Eurofins ITEMG232; host or cells: human liver microsomes; conditions: for inhibition at 10 µM: probe midazolam, read-out: CYP3A4 midazolam Inh %; for CYP3A4 midazolam Inh %: 10 μM
Method: as §1, §2

[8] = molecular target: T6, human recombinant AT1 receptor (Homo sapiens, UniProt P30556); experiment: Binding to AT1 receptor, radiometric scintillation assay (Eurofins protocol ITEM26 and ITEM24); conditions: read-out: AT1 IC50, ligand 125I (sar1,Ile8)-AT-II, 1 and 10 uM, 2-4 h at 37° C.
T6 sequence (P30556 1-359): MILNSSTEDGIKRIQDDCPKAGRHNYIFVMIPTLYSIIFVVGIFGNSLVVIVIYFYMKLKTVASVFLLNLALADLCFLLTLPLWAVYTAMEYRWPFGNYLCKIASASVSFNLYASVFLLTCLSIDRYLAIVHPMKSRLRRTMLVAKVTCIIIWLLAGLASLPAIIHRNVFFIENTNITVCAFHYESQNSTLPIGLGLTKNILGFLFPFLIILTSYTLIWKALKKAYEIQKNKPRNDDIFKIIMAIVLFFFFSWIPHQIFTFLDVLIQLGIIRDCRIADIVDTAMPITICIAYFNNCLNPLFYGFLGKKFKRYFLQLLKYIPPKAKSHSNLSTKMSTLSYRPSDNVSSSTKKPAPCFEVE
Method: Compounds were evaluated for binding to the human recombinant AT2 and AT1 receptor according to Eurofins protocol ITEM26 and ITEM24 using a radiometric scintillation assay.

T4 sequence (P33261 whole entry, canonical isoform): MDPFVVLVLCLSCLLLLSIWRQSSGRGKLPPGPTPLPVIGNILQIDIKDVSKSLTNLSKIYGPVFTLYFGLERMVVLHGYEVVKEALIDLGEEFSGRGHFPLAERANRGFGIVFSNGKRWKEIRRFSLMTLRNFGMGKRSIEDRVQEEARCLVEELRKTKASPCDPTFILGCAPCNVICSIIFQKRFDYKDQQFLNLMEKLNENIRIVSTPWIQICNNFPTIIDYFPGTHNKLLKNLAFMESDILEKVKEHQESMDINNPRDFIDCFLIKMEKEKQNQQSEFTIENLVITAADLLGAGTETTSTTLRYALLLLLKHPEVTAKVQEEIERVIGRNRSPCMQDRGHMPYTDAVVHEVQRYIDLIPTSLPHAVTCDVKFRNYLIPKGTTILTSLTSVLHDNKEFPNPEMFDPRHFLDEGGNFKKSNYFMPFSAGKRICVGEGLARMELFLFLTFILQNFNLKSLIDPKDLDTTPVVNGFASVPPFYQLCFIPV
Chain of CYP3A4 (P08684 whole entry, canonical isoform): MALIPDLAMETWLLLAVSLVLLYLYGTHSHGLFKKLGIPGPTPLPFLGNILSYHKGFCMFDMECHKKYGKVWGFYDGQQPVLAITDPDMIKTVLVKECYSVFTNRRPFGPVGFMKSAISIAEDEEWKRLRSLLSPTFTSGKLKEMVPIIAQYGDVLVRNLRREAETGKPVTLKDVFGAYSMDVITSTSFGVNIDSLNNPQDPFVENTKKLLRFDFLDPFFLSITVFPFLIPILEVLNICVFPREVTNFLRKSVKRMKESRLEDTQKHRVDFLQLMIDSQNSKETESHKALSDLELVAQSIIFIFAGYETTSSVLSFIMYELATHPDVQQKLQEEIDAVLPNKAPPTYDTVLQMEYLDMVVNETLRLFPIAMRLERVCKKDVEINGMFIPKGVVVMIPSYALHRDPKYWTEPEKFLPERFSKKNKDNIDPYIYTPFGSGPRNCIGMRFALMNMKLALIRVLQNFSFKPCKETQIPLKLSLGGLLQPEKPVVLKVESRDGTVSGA
T5 sequence (P10635 whole entry): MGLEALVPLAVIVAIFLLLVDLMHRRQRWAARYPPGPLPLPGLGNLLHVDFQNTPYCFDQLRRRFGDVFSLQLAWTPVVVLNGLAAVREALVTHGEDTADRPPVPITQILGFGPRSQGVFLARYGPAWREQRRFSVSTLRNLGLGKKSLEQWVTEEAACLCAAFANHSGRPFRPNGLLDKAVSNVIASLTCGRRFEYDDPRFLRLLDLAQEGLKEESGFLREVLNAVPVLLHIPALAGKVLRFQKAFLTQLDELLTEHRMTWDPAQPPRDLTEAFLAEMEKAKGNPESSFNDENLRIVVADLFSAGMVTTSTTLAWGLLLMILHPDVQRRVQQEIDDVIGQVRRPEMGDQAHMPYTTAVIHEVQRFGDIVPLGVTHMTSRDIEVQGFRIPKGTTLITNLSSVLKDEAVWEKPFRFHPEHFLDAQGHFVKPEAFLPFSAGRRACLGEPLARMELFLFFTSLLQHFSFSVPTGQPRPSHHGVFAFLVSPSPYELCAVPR

inhibition at 10 µM [1] [%]	inhibition at 10 µM [2] [%]	inhibition at 10 µM [3] [%]	inhibition at 10 µM [4] [%]	inhibition at 10 µM [5] [%]	inhibition at 10 µM [6] [%]	inhibition at 10 µM [7] [%]	SMILES	CYP3A4&5 testosterone Inh % [1] [%]	CYP1A Inh % [2] [%]	CYP2C8 Inh % [3] [%]	CYP2B6 Inh % [4] [%]	CYP2C19 Inh % [5] [%]	CYP2D6 Inh % [6] [%]	CYP3A4 midazolam Inh % [7] [%]	IC50 [8] [nM]
20.7	84.3	83.2	26.9	54.1	31.3	43.4	Cc1nccn1Cc1ccc(-c2cc(CC(C)C)sc2S(=O)(=O)NC(=O)OCCOC(=O)C(C)(C)C)cc1F [Example 19, 2-((((3-(3-Fluoro-4-((2-methyl-1H-imidazol-1-yl)methyl)phenyl)-5-isobutylthiophen-2-yl)sulfonyl)carbamoyl)oxy)ethyl pivalate]	–	–	–	–	–	–	–	–
–	–	–	–	–	–	–	COCCOC(=O)NS(=O)(=O)c1sc(CC(C)C)cc1-c1ccc(Cn2ccnc2C)c(F)c1.O=C(O)C(F)(F)F [Example 3]	−20	−13	26	36	39	44	−52	> 1000
–	–	–	–	–	–	–	CCOC(=O)NS(=O)(=O)c1sc(CC(C)C)cc1-c1ccc(Cn2ccnc2C(C)C)c(F)c1.O=C(O)C(F)(F)F [Example 8, Ethyl (3-(3-fluoro-4-((2-isopropyl-1H-imidazol-1-yl)methyl)phenyl)-5-isobutylthio-phen-2-yl)sulfonylcarbamate trifluoroacetic acid]	−20	−13	26	36	39	44	−52	> 1000
–	–	–	–	–	–	–	CCOC(=O)NS(=O)(=O)c1sc(CC(C)C)cc1-c1ccc(Cn2ccnc2CC)c(F)c1.O=C(O)C(F)(F)F [Example 7, Ethyl (3-(4-((2-ethyl-1H-imidazol-1-yl)methyl)-3-fluorophenyl)-5-isobutylthiophen-2-30 yl)sulfonylcarbamate trifluoroacetic acid]	18	21	66	26	41	39	−31	> 1000
–	–	–	–	–	–	–	Cc1nccn1Cc1c(F)cc(-c2cc(CC(C)C)sc2S(=O)(=O)NC(=O)OCCO)cc1F [Example 18, 2-Hydroxyethyl (3-(3,5-difluoro-4-((2-methyl-1H-imidazol-1-yl)methyl)phenv1)-5-isobutylthiophen-2-yl)sulfonylcarbamate]	1.7	15.2	56.1	33.3	5.9	48.8	−35.6	16000
–	–	–	–	–	–	–	CCc1nccn1Cc1ccc(-c2cc(CC(C)C)sc2S(=O)(=O)NC(=O)OCc2ccc(F)cc2)cc1F.O=C(O)C(F)(F)F [Example 6, 4-Fluorobenzyl (3-(4((2-ethyl-1H-imidazol-1-yl)methyl)-3-fluorophenyl)-5-isobutylthio-phen-2-yl)sulfonylcarbamate trifluoroacetic acid]	13	35	55	30	52	50	−39	> 1000
27.4	29	65.7	25	43.2	20.1	7.3	CC(C)Cc1cc(-c2ccc(Cn3ccnc3C(C)(C)C)c(F)c2)c(S(=O)(=O)NC(=O)c2ccccn2)s1 [Example 27, N-((3-(4-((2-(Tert-Butyl)-1H-imidazol-1-yl)methyl)-3-fluorophenyl)-5-isobutylthio-phen-2-yl)sulfonyl)picolinamide]	–	–	–	–	–	–	–	–
–	–	–	–	–	–	–	CCOC(=O)NS(=O)(=O)c1sc(CC(C)C)cc1-c1ccc(Cn2ccnc2C)c(F)c1.O=C(O)C(F)(F)F [Example 1, Ethyl (3-(3-fluoro-4-((2-methyl-1H-imidazol-1-yl)methyl)phenyl)-5-isobutylthiophen-2-yl)sulfonvicarbamate trifluoroacetic acid]	−2	37	37	39	37	45	−42	> 1000
